Assay results taken from patent US9877966B1, “Combination therapy for the inhibition of metastasis and tumorigenesis” (priority 2015, dated 2018).

Experiments:
Format in all cases: cell-based, human
PC3M cells = experiment: Soft agar colony formation assay (anchorage independent growth)
Procedure: Compound 2 was tested for its ability to affect anchorage independent growth in a soft agar assay, a stringent method to detect malignant transformation of cells in vitro.

[1] = system: PNC prevalence in PC3M cell line stably expressing GFP-PTB; experiment: High content assay for PNC detection (reduction of PNC prevalence); settings: Table 4; PC3M GFP-PTB cells, 16 hrs
Text: The quantitative output for this assay is the reduction of PNC prevalence. The PNC can be detected in living cells by the expression of a green fluorescent protein (GFP) tagged to the PNC localized protein, PTB. A PC3M cell line was used that stably expresses GFP-PTB to mark PNCs. This method eliminates the need for immunofluorescent staining.
The IN Cell Analyzer 1000 automated fluorescent imaging system (GE Healthcare, Piscataway, N.J.) was used for automated image acquisition. […] The instrument acquired images of each well in a 1536-well plate with a laser-based autofocus system. To score PNC prevalence in a high-content throughput, the Multi-Target Analysis (MTA) algorithm (GE Healthcare, Investigator v3.5) to identify individual cells and granules (PNCs) within these cells was used. The nucleus was segmented via a region growing method (50 μm^2 minimum area) with light shading and noise removal to allow “touching” nuclei to be separated. […] For this particular assay, PNC-positive cells were scored when 1 to 3 PNC granules were detected per nucleus. Cells that contained 0 granules were scored as PNC negative, and cells with >3 granules were assumed to be false positives (very few cells have more than 3 PNCs in one focus plane), and were also scored as PNC negative.

[2] = system: PC3M reporter cell line stably expressing PTB-GFP (ATP levels); experiment: ATP quantitation assay (ATPLite); settings: Table 4, PC3M cells, 24 hrs
Procedure: This follow-up assay was conducted to measure the effect of compounds on cell health by measuring ATP levels (ATPLite™). ATPLite™ is an ATP monitoring system based on firefly (Photinus pyralis) luciferase. The level of ATP in a metabolically active cell is a general marker for its viability. ATP levels are often reduced during necrosis or apoptosis. In this assay, the luciferase enzyme catalyzes the conversion of the added substrate D-luciferin to oxyluciferin and light with ATP. Thus, the emitted light is proportional to the ATP concentration. For this assay, the highly metastatic PC3M reporter cell line stably expressing the PTB-GFP was provided by Professor Sui Huang of Northwestern University. The media and cell culture reagents were purchased from Invitrogen (Carlsbad, Calif.), ATPLite™ came from PerkinElmer.

Compound | cell viability (PC3M cells; soft agar assay, 3.8, 18.6 nM) | number of colonies (anchorage independent growth) (PC3M cells; soft agar, after 14 days, 3.8, 18.6 nM) | PNC IC50 [1] | ATP IC50 [2]
N=c1c2c(-c3ccccc3)c(-c3ccccc3)n(Cc3ccccc3)c2ncn1[C@H]1CC[C@H](O)CC1 [Compound 2, trans-4-(7-Benzyl-4-imino-5,6-diphenyl-4,7-dihydro-3H-pyrrolo[2,3-d]pyrimidin-3-yl)cyclohexanol] | no impact on cell viability | dose dependent reduction in the number of colonies | – | –
COC(=O)C[C@H](C(=O)OC)n1ncc2c(c(-c3ccccc3)cn2Cc2ccc(Br)cc2)c1=N [Compound 114] | – | – | inactive | inactive
